Earlier results in patent publication US20080311200A1, “Controlled Slow Release Formulation of Thiamine and Use Thereof in the Treatment of Pathologies Connected to Defective Process of Learning and Memorization” (BIOPROGRESS S.P.A., priority 2004, published 2008).

Test system: mechanism of active transport through the intestine wall

concentration above which the active transport of intestinal absorption reaches saturation: higher than 2 μM
SMILES: Cc1ncc(C[n+]2csc(CCO)c2C)c(N)n1 [thiamine]
